“And” between values parts separate entries of the source, which are not always exact repeats. Equal values may be shown once. Toxic doses and inconclusive results are not listed. Numbered stars: 1 amine (or outer) side, 2 acyl side, 3 side chain; on linkers, the order of the positions; unused ones are H or OH. Bridge positions count the residues as written; N and C are the ends. Square brackets hold non-standard residues; d marks the D form. Peptide text beside a SMILES is read from it. I, II: the chains in the order shown. Actinocin(9to1) = Cc1c2oc3c(C)ccc(C(=O)[*:1])c3nc-2c(C(=O)[*:2])c(N)c1=O; aThr = C[C@H](O)[C@H](N)C(=O)O; NMeV = CN[C@H](C(=O)O)C(C)C; Sar = CNCC(=O)O
System: BDF1 mice, L1210 leukemia sc, survival T/C
Assay: NCI In Vivo Anticancer Drug Screen. Data for tumor model L1210 Leukemia (subcutaneous) in B6D2F1 (BDF1) mice
Settings: endpoint: median survival time, higher = longer survival
In short: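 Expressed as T/C: measurement in compound-treated, tumor-bearing mice relative to vehicle-treated control mice, based on survival or tumor size.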

CCCCNc1ncnc2c1cnn2C
T/C (dose: 23.3 mg/kg/injection, schedule: Q01DX Z (sc), vehicle: methylcellulose (MC)): 105 % of control
T/C (dose: 38.9 mg/kg/injection, schedule: Q01DX Z (sc), vehicle: methylcellulose (MC)): 110 % of control
T/C (dose: 64.8 mg/kg/injection, schedule: Q01DX Z (sc), vehicle: methylcellulose (MC)): 110 % of control
T/C (dose: 108.0 mg/kg/injection, schedule: Q01DX Z (sc), vehicle: methylcellulose (MC)): 110 % of control
T/C (dose: 180.0 mg/kg/injection, schedule: Q01DX Z (sc), vehicle: methylcellulose (MC)): 100 % of control

CCN(CC)C(=O)c1cccnc1
T/C (dose: 28.0 mg/kg/injection, schedule: Q01DX Z (sc), vehicle: water): 109 % of control
T/C (dose: 46.7 mg/kg/injection, schedule: Q01DX Z (sc), vehicle: water): 100 % of control
T/C (dose: 77.8 mg/kg/injection, schedule: Q01DX Z (sc), vehicle: water): 100 % of control
T/C (dose: 130.0 mg/kg/injection, schedule: Q01DX Z (sc), vehicle: water): 100 % of control
T/C (dose: 216.0 mg/kg/injection, schedule: Q01DX Z (sc), vehicle: water): 100 % of control

COC(=O)Nc1nc2ccc(C(=O)c3cccs3)cc2[nH]1
T/C (dose: 50.0 mg/kg/injection, schedule: Q04DX003 (ip), vehicle: other): 118 % of control
T/C (dose: 70.0 mg/kg/injection, schedule: Q04DX003 (iv), vehicle: other): 161 % of control
T/C (dose: 100.0 mg/kg/injection, schedule: Q04DX003 (iv), vehicle: other): 151 % of control

CCCCCCC(=O)O[C@H]1CC[C@H]2[C@@H]3CCC4=CC(=O)CC[C@]4(C)[C@H]3CC[C@]12C
T/C (dose: 5.0 mg/kg/injection, schedule: Q01DX009 (ip), vehicle: other): 101 % of control
T/C (dose: 5.0 mg/kg/injection, schedule: Q01DX009 (sc), vehicle: other): 102 % of control and 105 % of control
T/C (dose: 10.0 mg/kg/injection, schedule: Q01DX009 (ip), vehicle: other): 102 % of control
T/C (dose: 10.0 mg/kg/injection, schedule: Q01DX009 (sc), vehicle: other): 100 % of control and 104 % of control
T/C (dose: 20.0 mg/kg/injection, schedule: Q01DX009 (ip), vehicle: other): 98 % of control
T/C (dose: 20.0 mg/kg/injection, schedule: Q01DX009 (sc), vehicle: other): 104 % of control and 105 % of control
T/C (dose: 40.0 mg/kg/injection, schedule: Q01DX009 (ip), vehicle: other): 104 % of control
T/C (dose: 40.0 mg/kg/injection, schedule: Q01DX009 (sc), vehicle: other): 101 % of control and 103 % of control
T/C (dose: 80.0 mg/kg/injection, schedule: Q01DX009 (ip), vehicle: other): 97 % of control and 98 % of control
T/C (dose: 160.0 mg/kg/injection, schedule: Q01DX009 (ip), vehicle: other): 94 % of control and 98 % of control
T/C (dose: 320.0 mg/kg/injection, schedule: Q01DX009 (sc), vehicle: other): 88 % of control and 104 % of control
T/C (dose: 640.0 mg/kg/injection, schedule: Q01DX009 (sc), vehicle: other): 95 % of control and 100 % of control

Cc1c2oc3c(C)ccc(C(=O)N[C@@H]4C(=O)N[C@H](C(C)C)C(=O)N5CCC[C@H]5C(=O)N(C)CC(=O)N(C)[C@@H](C(C)C)C(=O)O[C@H]4C)c3nc-2c(C(=O)N[C@@H]2C(=O)N[C@H](C(C)C)C(=O)N3CCC[C@H]3C(=O)N(C)CC(=O)N(C)[C@@H](C(C)C)C(=O)O[C@H]2C)c(N)c1=O (I: [aThr][dV]P[Sar][NMeV] / II: [aThr][dV]P[Sar][NMeV]; ester I:1-I:C, II:1-II:C; linker I:N-II:N via Actinocin(9to1))
T/C (dose: 0.07 mg/kg/injection, schedule: Q01DX009 (sc), vehicle: saline): 95 % of control
T/C (dose: 0.07 mg/kg/injection, schedule: Q01DX Z (sc), vehicle: saline): 110 % of control
T/C (dose: 0.15 mg/kg/injection, schedule: Q01DX009 (sc), vehicle: saline): 103 % of control
T/C (dose: 0.3 mg/kg/injection, schedule: Q01DX009 (sc), vehicle: saline): 106 % of control
T/C (dose: 0.52 mg/kg/injection, schedule: Q01DX Z (sc), vehicle: saline): 120 % of control
T/C (dose: 0.86 mg/kg/injection, schedule: Q01DX Z (sc), vehicle: saline): 120 % of control
